Laboratory results published in PubChem BioAssay (NCI).
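Compound exposure: 48 hours, 5 concentrations, 96-well plates. Abbreviation: GI50, concentration required for 50% inhibition of growth. TGI: total growth inhibition.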

Assays:
Experiment in all cases: NCI-60 cell line screen, 48 h
A498 renal = tested on: A498 renal
CAKI-1 renal = tested on: CAKI-1 renal
HCT-15 colon = tested on: HCT-15 colon
HOP-62 NSCLC = tested on: HOP-62 NSCLC
HS 578T breast = tested on: HS 578T breast
MDA-MB-435 = tested on: MDA-MB-435
OVCAR-4 ovarian = tested on: OVCAR-4 ovarian
SR leukemia = tested on: SR leukemia
TK-10 renal = tested on: TK-10 renal
UACC-257 melanoma = tested on: UACC-257 melanoma

| SMILES | TGI (A498 renal) | TGI (CAKI-1 renal) | TGI (HCT-15 colon) | TGI (HOP-62 NSCLC) | TGI (HS 578T breast) | TGI (MDA-MB-435) | TGI (OVCAR-4 ovarian) | TGI (SR leukemia) | TGI (TK-10 renal) | TGI (UACC-257 melanoma) | GI50 (A498 renal) | GI50 (CAKI-1 renal) | GI50 (HCT-15 colon) | GI50 (HOP-62 NSCLC) | GI50 (HS 578T breast) | GI50 (MDA-MB-435) | GI50 (OVCAR-4 ovarian) | GI50 (TK-10 renal) | GI50 (UACC-257 melanoma) |
| --- | --- | --- | --- | --- | --- | --- | --- | --- | --- | --- | --- | --- | --- | --- | --- | --- | --- | --- | --- |
| Cc1nc(C)c(N2CCN(CN)CC2)c(=O)[nH]1 | > 100 µM | > 100 µM | > 100 µM | > 100 µM | > 100 µM | > 100 µM | > 100 µM | > 100 µM | > 100 µM | > 100 µM |  |  |  |  |  |  |  |  |  |
| O=C1N2CCC[C@H]2CS1(=O)=O | 44.5 µM | 18.2 µM | 29.4 µM | 32 µM | > 100 µM | 36.7 µM | 28.6 µM |  | 32.2 µM | 37.4 µM |  |  |  |  |  |  |  |  |  |
| S=C1C(=Nc2ccccc2)N(c2ccccc2)/C(=N\c2cccc[n+]2Cc2ccccc2)N1c1ccccc1 |  | 55.7 µM | 45.7 µM | 29.8 µM | > 100 µM | 22.3 µM |  | 79.7 µM | 99.8 µM | 31.6 µM |  |  |  |  |  |  |  |  |  |
| COc1c(C)c(C/C=C(\C)CCCC(C)CCCC(C)CCCC(C)C)c(OC)c2ccccc12 (stereo not drawn) |  | > 100 µM | > 100 µM |  | > 100 µM | > 100 µM | > 100 µM | > 100 µM | > 100 µM | > 100 µM |  |  |  |  |  |  |  |  |  |
| COc1ccc(OC)c2c(C)ccnc12 | > 100 µM | > 100 µM | > 100 µM | > 60.9 µM |  | > 100 µM | > 71 µM |  | > 100 µM | > 92.5 µM |  |  |  |  |  |  |  |  |  |
| Cc1ccc(S(=O)(=O)OCCC2CN(C(=O)OCc3ccccc3)C(C)(C)O2)cc1 (stereo not drawn) | > 100 µM | > 100 µM | 32.5 µM |  |  | 22.5 µM | > 100 µM | > 100 µM | > 100 µM | > 100 µM |  |  |  |  |  |  |  |  |  |
| O=c1cc(N2CCOCC2)n2c(ccc3ccccc32)n1 | > 100 µM | > 100 µM | > 100 µM | > 100 µM | > 100 µM | > 100 µM |  | > 100 µM | > 100 µM | > 100 µM |  |  |  |  |  |  |  |  |  |
| O=C(O)Cn1c2c(c3c1-c1ccccc1C3=O)C(=O)CCC2 | > 100 µM | > 100 µM | > 100 µM | > 100 µM | > 100 µM | > 100 µM | > 100 µM |  | > 100 µM | > 100 µM | > 100 µM | > 100 µM | > 100 µM | > 100 µM | > 100 µM | > 100 µM | > 100 µM | > 100 µM | > 100 µM |
| N/N=C(/N)SCCCCCCCCCCS/C(N)=N/N | 43.8 µM | > 100 µM | 27.5 µM | > 100 µM | > 100 µM | > 100 µM |  | 27.4 µM | > 100 µM | > 100 µM |  |  |  |  |  |  |  |  |  |
| Cn1c2ccccc2n2c3ncccc3c(=O)cc12 | > 100 µM | > 100 µM | > 100 µM | > 100 µM |  | > 100 µM | > 100 µM |  | > 100 µM | > 100 µM |  |  |  |  |  |  |  |  |  |
| CC(=O)CC(=O)N1CCSC1=S | > 10 µM |  | > 10 µM | > 10 µM | > 10 µM | > 10 µM |  | > 10 µM | > 10 µM | > 10 µM |  |  |  |  |  |  |  |  |  |
